Experiments:
XIAP BIR3 = target: T1, XIAP BIR3 (Homo sapiens, UniProt P98170); experiment: XIAP BIR3 binding assay (DELFIA), displacement of SMAC peptide; details: GST-fusion BIR3 domain (aa 241 to 356) 10 nM, SMAC peptide 10 nM; activity of the (S)-isomers
T1 construct: covering amino acids 241 to 356; XIAP BIR3; made in house; host or cells: E. coli
Outline: (§1)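 Each BIR3 domain (10 nM) incubated with biotinylated N-terminal SMAC peptide (10 nM) and compound for 1 h at room temp in Tris/NaCl buffer with BSA, DTT and Triton X-100. Captured on streptavidin plates; bound BIR3 detected by Eu-labelled anti-GST time-resolved fluorescence, giving IC50 values.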

cIAP1 BIR3 = target: T2, cIAP1 BIR3 (Homo sapiens, UniProt Q13490); experiment: cIAP1 BIR3 binding assay (DELFIA), displacement of SMAC peptide; details: GST-fusion BIR3 domain (aa 256 to 363) 10 nM, SMAC peptide 10 nM; activity of the (S)-isomers
T2 construct: covering amino acids 256 to 363; cIAP1 BIR3; made in house; host or cells: E. coli
T2 sequence (Q13490 256-363): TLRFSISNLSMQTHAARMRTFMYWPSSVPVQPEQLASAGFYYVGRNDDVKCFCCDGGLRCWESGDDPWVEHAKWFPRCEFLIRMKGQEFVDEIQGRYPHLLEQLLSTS
Outline: as §1

T1 sequence (P98170 241-356): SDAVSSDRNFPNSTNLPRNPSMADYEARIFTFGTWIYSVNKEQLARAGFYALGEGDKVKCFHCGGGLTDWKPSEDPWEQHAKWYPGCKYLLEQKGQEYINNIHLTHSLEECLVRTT

Question: How did the IC50 (XIAP BIR3) turn out when Cc1noc(C)c1-c1ccc(NC(=O)C(C)N)nc1C#Cc1ccccc1 (stereo not shown) [Example 165, 2-amino-N-[5-(3,5-dimethyl-1,2-oxazol-4-yl)-6-(2-phenylethynyl)-pyridin-2-yl]propanamide] was run?
Answer: 67 nM

Question: And the IC50 (cIAP1 BIR3)?
Answer: 1 nM

Question: Which IC50 (XIAP BIR3) does the source give for CNC(C)C(=O)Nc1ccc(-c2c(C)nc3ccccn23)c(C#Cc2ccccc2)n1 (stereo not shown) [Example 174, 2-(methylamino)-N-[5-(2-methyl-imidazo[1,2-a]pyridin-3-yl)-6-(2-phenylethynyl)pyridin-2-yl]-propanamide] here?
Answer: 51 nM

Question: What about the IC50 (cIAP1 BIR3) of the same molecule?
Answer: 1 nM

Question: What does the source list for CNC(C)C(=O)Nc1ccc(-c2cnc(C(=O)OC)nc2)c(C#Cc2ccccc2)n1 (stereo not shown) [Example 194, methyl 5-[6-[[2-(methylamino)-propanoyl]amino]-2-(2-phenyl-ethynyl)pyridin-3-yl]pyrimidine-2-carboxylate]?
Answer: IC50 (XIAP BIR3): 102 nM; IC50 (cIAP1 BIR3): 23 nM

Question: With CNC(C)C(=O)Nc1ccc(-c2c(C)nc3ccccn23)c(C#Cc2ccc3occc3c2)n1 (stereo not shown) [Example 52, N-[6-[2-(1-benzofuran-5-yl)-ethynyl)-5-(2-methyl-imidazo[1,2-a]pyridin-3-yl)-pyridin-2-yl]-2-(methylamino)-propanamide] as the molecule, how does the IC50 (XIAP BIR3) read?
Answer: 145 nM

Question: And the IC50 (cIAP1 BIR3)?
Answer: 1 nM

Question: What does the source list for CNC(C)C(=O)Nc1ccc(-c2c(C)nc3ccccn23)c(C#Cc2ccc3nccn3c2)n1 (stereo not shown) [Example 48, N-[6-(2-imidazo[1,2-a]pyridin-6-ylethynyl)-5-(2-methyl-imidazo[1,2-a]pyridin-3-yl)-pyridin-2-yl]-2-(methylamino)-propanamide]?
Answer: IC50 (XIAP BIR3): 212 nM; IC50 (cIAP1 BIR3): 1 nM

Question: How did the IC50 (XIAP BIR3) turn out when CNC(C)C(=O)Nc1ccc(-c2c(C)nc(N3CCCC3)nc2C)c(C#Cc2ccc3c(ccc(=O)n3C)c2)n1 (stereo not shown) [Example 79, N-[5-(4,6-dimethyl-2-pyrrolidin-1-ylpyrimidin-5-yl)-6-[2-(1-methyl-2-oxoquinolin-6-yl)-ethynyl]pyridin-2-yl]-2-(methyl-amino)propanamide] was run?
Answer: 2400 nM

Question: And the IC50 (cIAP1 BIR3)?
Answer: 1 nM

Question: CNC(C)C(=O)Nc1ccc(-c2sc(C)nc2C)c(C#Cc2ccccc2)n1 (stereo not shown) [Example 186, N-[5-(2,4-dimethyl-1,3-thiazol-5-yl)-6-(2-phenylethynyl)pyridin-2-yl]-2-(methylamino)propanamide] was tested. Which IC50 (XIAP BIR3) did it give?
Answer: 151 nM

Question: What about the IC50 (cIAP1 BIR3) of the same molecule?
Answer: 16 nM

Question: With Cc1cc(C)cc(C#Cc2nc(NC(=O)C(C)N)cc3ccccc23)c1 (stereo not shown) [Example 228, 2-amino-N-[1-[2-(3,5-dimethyl-phenyl)ethynyl]isoquinolin-3-yl]propanamide] as the molecule, how does the IC50 (XIAP BIR3) read?
Answer: 1920 nM

Question: What about the IC50 (cIAP1 BIR3) of the same molecule?
Answer: 1470 nM

Question: What does the source list for CNC(C)C(=O)Nc1ccc(-c2c(C)nc3ccccn23)c(C#Cc2ccc3c(OC)nccc3c2)n1 (stereo not shown) [Example 77, N-[6-[2-(1-methoxyisoquinolin-6-yl)ethynyl]-5-(2-methyl-imidazo[1,2-a]pyridin-3-yl)-pyridin-2-yl]-2-(methylamino)-propanamide]?
Answer: IC50 (XIAP BIR3): 196 nM; IC50 (cIAP1 BIR3): 1 nM

Question: For CNC(C)C(=O)Nc1ccc(-c2c(C)nc3ccccn23)c(C#Cc2ccc(-n3cccn3)cc2)n1 (stereo not shown) [Example 90, 2-(methylamino)-N-[5-(2-methylimidazo[1,2-a]pyridin-3-yl)-6-[2-(4-pyrazol-1-ylphenyl)-ethynyl]pyridin-2-yl]propan-amide], which IC50 (XIAP BIR3) is on record?
Answer: 166 nM

Question: And the IC50 (cIAP1 BIR3)?
Answer: 1 nM

Question: What does the source list for CNC(C)C(=O)Nc1ccc(-c2c(C)nc3ccccn23)c(C#Cc2ccc3c(c2)CN(C)C3=O)n1 (stereo not shown) [Example 31, 2-(methylamino)-N-[5-(2-methylimidazo[1,2-a]pyridin-3-yl)-6-[2-(2-methyl-1-oxo-3H-isoindol-5-yl)ethynyl]pyridin-2-yl]propanamide]?
Answer: IC50 (XIAP BIR3): 228 nM; IC50 (cIAP1 BIR3): 1 nM

Question: What does the source list for CNC(C)C(=O)Nc1ccc(-c2c(-c3ccncc3)nc3cc(C)ccn23)c(C#Cc2ccc3c(ccc(=O)n3C)c2)n1 (stereo not shown) [Example 81, 2-(methylamino)-N-[6-[2-(1-methyl-2-oxoquinolin-6-yl)-ethynyl]-5-(7-methyl-2-pyridin-4-ylimidazo[1,2-a]pyridin-3-yl)-pyridin-2-yl]propanamide]?
Answer: IC50 (XIAP BIR3): 253 nM; IC50 (cIAP1 BIR3): 1 nM

Question: For CNC(C)C(=O)Nc1ccc(-c2c(C)nc3ccccn23)c(C#Cc2ccc(C#N)c(Cl)c2)n1 (stereo not shown) [Example 41, N-[6-[2-(3-chloro-4-cyanophenyl)ethynyl]-5-(2-methylimidazo[1,2-a]pyridin-3-yl)pyridin-2-yl]-2-(methyl-amino)propanamide], which IC50 (XIAP BIR3) is on record?
Answer: 123 nM

Question: And the IC50 (cIAP1 BIR3)?
Answer: 1 nM

Question: For CNC(C)C(=O)Nc1ccc(-c2c(C)nc3ccccn23)c(C#Cc2ccc3c(ccc(=O)n3C)c2)n1 (stereo not shown) [Example 26, 2-(methylamino)-N-[5-(2-methylimidazo[1,2-a]pyridin-3-yl)-6-[2-(1-methyl-2-oxoquinolin-6-yl)ethynyl]pyridin-2-yl]propanamide], which IC50 (XIAP BIR3) is on record?
Answer: 579 nM

Question: And the IC50 (cIAP1 BIR3)?
Answer: 1 nM

Question: Which results are given for CNC(C)C(=O)Nc1ccc(-c2c(C)nc3ccccn23)c(C#Cc2cccc3ncccc23)n1 (stereo not shown) [Example 89, 2-(methylamino)-N-[5-(2-methylimidazo[1,2-a]pyridin-3-yl)-6-(2-quinolin-5-ylethynyl)-pyridin-2-yl]propanamide]?
Answer: IC50 (XIAP BIR3): 92 nM; IC50 (cIAP1 BIR3): 2 nM

Question: With CC(N)C(=O)Nc1cc2ccccc2c(C#Cc2ccccc2)n1 (stereo not shown) [Example 204, 2-amino-N-[1-(2-phenyl-ethynyl)isoquinolin-3-yl]-propanamide] as the molecule, how does the IC50 (XIAP BIR3) read?
Answer: 703 nM

Question: What about the IC50 (cIAP1 BIR3) of the same molecule?
Answer: 430 nM

Question: Which results are given for CNC(C)C(=O)Nc1ccc(-c2c(-c3ccncc3)nc3cc(C)ccn23)c(C#Cc2ccc3nc(C)ccc3c2)n1 (stereo not shown) [Example 64, 2-(methylamino)-N-[5-(7-methyl-2-pyridin-4-ylimidazo[1,2-a]pyridin-3-yl)-6-[2-(2-methylquinolin-6-yl)-ethynyl]pyridin-2-yl]propan-amide]?
Answer: IC50 (XIAP BIR3): 152 nM; IC50 (cIAP1 BIR3): 1 nM

Question: Which results are given for CNC(C)C(=O)Nc1ccc(-c2cnn(C)c2C)c(C#Cc2ccccc2)n1 (stereo not shown) [Example 189, N-[5-(1,5-dimethylpyrazol-4-yl)-6-(2-phenylethynyl)pyridin-2-yl]-2-(methylamino)propanamide]?
Answer: IC50 (XIAP BIR3): 87 nM; IC50 (cIAP1 BIR3): 30 nM

Question: Which IC50 (XIAP BIR3) does the source give for CNC(C)C(=O)Nc1ccc(-c2cccc(NC(C)=O)c2)c(C#Cc2ccccc2)n1 (stereo not shown) [Example 118, N-[5-(3-acetamidophenyl)-6-(2-phenylethynyl)pyridin-2-yl]-2-(methylamino)propanamide] here?
Answer: 287 nM

Question: What about the IC50 (cIAP1 BIR3) of the same molecule?
Answer: 92 nM

Question: With CC(N)C(=O)Nc1ccc(-c2cncc(Oc3ccccc3)c2)c(C#Cc2ccccc2)n1 (stereo not shown) [Example 100, 2-amino-N-[5-(5-phenoxypyridin-3-yl)-6-(2-phenylethynyl)pyridin-2-yl]propanamide] as the molecule, how does the IC50 (XIAP BIR3) read?
Answer: 461 nM

Question: And the IC50 (cIAP1 BIR3)?
Answer: 324 nM

Question: What does the source list for CNC(C)C(=O)Nc1ccc(-c2c(-c3ccncc3)nc3cc(C)ccn23)c(C#Cc2ccc(F)c3ncccc23)n1 (stereo not shown) [Example 78, N-[6-[2-(8-fluoroquinolin-5-yl)-ethynyl]-5-(7-methyl-2-pyridin-4-ylimidazo[1,2-a]pyridin-3-yl)-pyridin-2-yl]-2-(methylamino)-propanamide]?
Answer: IC50 (XIAP BIR3): 47 nM; IC50 (cIAP1 BIR3): 2 nM

Question: Which IC50 (XIAP BIR3) does the source give for CNC(C)C(=O)Nc1ccc(-c2c(-c3ccncc3)nc3cc(C)ccn23)c(C#Cc2ccc(OC)c3ncccc23)n1 (stereo not shown) [Example 96, N-[6-[2-(8-methoxyquinolin-5-yl)ethynyl]-5-(7-methyl-2-pyridin-4-ylimidazo[1,2-a]-pyridin-3-yl)pyridin-2-yl]-2-(methylamino)propanamide] here?
Answer: 83 nM

Question: What about the IC50 (cIAP1 BIR3) of the same molecule?
Answer: 1 nM

Question: Which IC50 (XIAP BIR3) does the source give for CNC(C)C(=O)Nc1ccc(-c2c(C)nc3ccccn23)c(C#Cc2ccc3c(c2)CC(=O)N3C)n1 (stereo not shown) [Example 66, 2-(methylamino)-N-[5-(2-methyliniidazo[1,2-a]pyridin-3-yl)-6-[2-(1-methyl-2-oxo-3H-indol-5-yl)ethynyl]pyridin-2-yl]-propanamide] here?
Answer: 252 nM

Question: What about the IC50 (cIAP1 BIR3) of the same molecule?
Answer: 1 nM

Question: What does the source list for CNC(C)C(=O)Nc1ccc(-c2c(C)nc3ccccn23)c(C#Cc2ccc(-c3ccon3)cc2)n1 (stereo not shown) [Example 34, 2-(methylamino)-N-[5-(2-methylimidazo[1,2-a]pyridin-3-yl)-6-[2-[4-(1,2-oxazol-3-yl)-phenyl]ethynyl]pyridin-2-yl]-propanamide]?
Answer: IC50 (XIAP BIR3): 279 nM; IC50 (cIAP1 BIR3): 1 nM

Question: Which results are given for CNC(C)C(=O)Nc1ccc(-c2cncc(OC)c2)c(C#Cc2ccccc2)n1 (stereo not shown) [Example 121, N-[5-(5-methoxypyridin-3-yl)-6-(2-phenylethynyl)pyridin-2-yl]-2-(methylamino)propanamide]?
Answer: IC50 (XIAP BIR3): 97 nM; IC50 (cIAP1 BIR3): 31 nM

Question: Which results are given for CNC(C)C(=O)Nc1ccc(-c2c(C)nc3ccccn23)c(C#Cc2ccc(-c3cnco3)cc2)n1 (stereo not shown) [Example 44, 2-(methylamino)-N-[5-(2-methylimidazo[1,2-a]pyridin-3-yl)-6-[2-[4-(1,3-oxazol-5-yl)-phenyl]ethynyl]pyridin-2-yl]-propanamide]?
Answer: IC50 (XIAP BIR3): 136 nM; IC50 (cIAP1 BIR3): 1 nM

Question: How did the IC50 (XIAP BIR3) turn out when CNC(C)C(=O)Nc1ccc(-c2ccc(N3CCCC3)nc2)c(C#Cc2ccccc2)n1 (stereo not shown) [Example 129, 2-(methylamino)-N-[6-(2-phenyl-ethynyl)-5-(6-pyrrolidin-1-ylpyridin-3-yl)pyridin-2-yl]-propanamide] was run?
Answer: 436 nM

Question: What about the IC50 (cIAP1 BIR3) of the same molecule?
Answer: 98 nM

Question: Which results are given for CNC(C)C(=O)Nc1ccc(-c2c(C)nc3ccccn23)c(C#Cc2cc(C)nc3c(F)cccc23)n1 (stereo not shown) [Example 92, N-[6-[2-(8-fluoro-2-methylquinolin-4-yl)ethynyl]-5-(2-methylimidazo[1,2-a]pyridin-3-yl)pyridin-2-yl]-2-(methyl-amino)propanamide]?
Answer: IC50 (XIAP BIR3): 172 nM; IC50 (cIAP1 BIR3): 1 nM

Question: With CNC(C)C(=O)Nc1ccc(-c2cscc2C#N)c(C#Cc2ccccc2)n1 (stereo not shown) [Example 145, N-[5-(4-cyanothiophen-3-yl)-6-(2-phenylethynyl)pyridin-2-yl]-2-(methylamino)propanamide] as the molecule, how does the IC50 (XIAP BIR3) read?
Answer: 317 nM

Question: And the IC50 (cIAP1 BIR3)?
Answer: 94 nM

From patent publication US8859541B2, “6-alkynylpyridines” (Boehringer Ingelheim International GmbH, priority 2012, dated 2014)
